Reference: patent US8524750B2, “(Pyrazol-3-yl)-1,3,4-thiadiazol-2-amine and (pyrazol-3-yl)-1,3,4-thiazol-2-amine compounds” (Glaxo Group Limited, priority 2009, dated 2013)
pIC50: −log10 of the molar value. Values after ≈ are worked out from the molar mass of the structure shown. Where two headings read alike, the source gives them in different places.

Assays:
[1] = test system: Mycobacterium tuberculosis H37Rv; assay: Mycobacterium tuberculosis H37Rv Inhibition Assay (Whole Cell Assay); format: cell-based; conditions: ATCC 25618 / H37Rv, H37Rv strain (ATCC25618), Middlebrook 7H9, six days at 37° C., resazurin fluorescence after 48 hours
[2] = target: T1, Mycobacterium tuberculosis InhA (Mycobacterium tuberculosis, UniProt P9WGR1); assay: Mycobacterium tuberculosis InhA Inhibition Assay (Enzyme Assay); format: biochemical; conditions: 5 nM InhA, 50 μM DDCoA, 50 μM NADH, PIPES buffer pH 6.8, initial velocities of NADH consumption
T1 construct: made in house; host or cells: E. coli
T1 sequence (P9WGR1 whole entry, looked up): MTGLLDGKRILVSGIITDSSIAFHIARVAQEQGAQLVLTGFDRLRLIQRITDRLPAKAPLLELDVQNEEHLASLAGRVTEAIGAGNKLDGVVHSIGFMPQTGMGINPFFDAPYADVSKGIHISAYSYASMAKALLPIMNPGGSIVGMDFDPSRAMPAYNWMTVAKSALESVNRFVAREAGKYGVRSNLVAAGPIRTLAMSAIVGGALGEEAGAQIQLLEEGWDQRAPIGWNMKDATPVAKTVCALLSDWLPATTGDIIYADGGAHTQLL
Method in brief: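 Recombinant Mtb InhA (E. coli-expressed), 5 nM, with 50 μM dodecenoyl-CoA and 50 μM NADH in 30 mM PIPES pH 6.8, 0.05% BSA; reaction started with enzyme. NADH fluorescence (ex 340/em 480 nm) followed 20 min at room temperature; IC50 from initial velocities of NADH consumption.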

Cc1cc(C(F)F)nn1Cc1nnc(Nc2ccn(Cc3c(F)cccc3Cl)n2)s1 [Example 55, N-{1-[(2-chloro-6-fluorophenyl)methyl]-1H-pyrazol-3-yl}-5-([3-(difluoromethyl)-5-methyl-I H-pyrazol-1-yl]methyl}-1,3,4-thiadiazol-2-amine] showed an MIC [1] of over 10 µM and a pIC50 ([2]; read-out: IC50 value) of over 6.96.
Work on Cc1cc(C)n(C(C)c2nnc(Nc3ccn(Cc4cc(F)ccc4C(F)(F)F)n3)s2)n1 (stereo not drawn) [Example 9, 5-[1-(3,5-dimethyl-1H-pyrazol-1-yl)ethyl]-N-(1-{[5-fluoro-2-(trifluoromethyl)phenyl]methyl}-1H-pyrazol-3-yl)-1,3,4-thiadiazol-2-amine] yielded an MIC [1] of over 10 µM and a pIC50 ([2]; read-out: IC50 value) of over 6.97.
Cc1ccn(C(C)c2nnc(Nc3ccn(Cc4c(Cl)cccc4Cl)n3)s2)n1 (stereo not drawn) [Example 54, N-{1-[(2,6-dichlorophenyl)methyl]-1H-pyrazol-3-yl}-5-[1-(3-methyl-1H-pyrazol-1-yl)ethyl]-1,3,4-thiadiazol-2-amine] showed an MIC [1] of 1 to 4 µM (≈ 0.434 to 1.74 µg/mL) and a pIC50 ([2]; read-out: IC50 value) of over 6.94.
Cc1cc(C)n(C(C)c2nnc(Nc3ccn(Cc4ccccc4F)n3)s2)n1 (stereo not drawn) [Example 6, 5-[1-(3,5-dimethyl-1H-pyrazol-1-yl)ethyl]-N-{1-[(2-fluorophenyl)methyl]-1H-pyrazol-3-yl}-1,3,4-thiadiazol-2-amine] showed an MIC [1] of 1 to 4 µM (≈ 0.397 to 1.59 µg/mL) and a pIC50 ([2]; read-out: IC50 value) of over 6.90.
Cc1cc(C)n(C(C)c2nnc(Nc3ccn(Cc4cccc(N)c4C)n3)s2)n1 (stereo not drawn) [Example 27, N-{1-[(3-amino-2-methylphenyl)methyl]-1H-pyrazol-3-yl}-5-[1-(3,5-dimethyl-1H-pyrazol-1-yl)ethyl]-1,3,4-thiadiazol-2-amine] gave an MIC [1] of 4 to 10 µM (≈ 1.63 to 4.09 µg/mL) and a pIC50 ([2]; read-out: IC50 value) of over 6.91.
Cc1cc(C(F)F)nn1C(C)c1nnc(Nc2ccn(Cc3ccccc3Cl)n2)s1 (stereo not drawn) [Example 41, N-{1-[(2-chlorophenyl)methyl]-1H-pyrazol-3-yl}-5-{1-[3-(difluoromethyl)-5-methyl-1H-pyrazol-1-yl]ethyl}-1,3,4-thiadiazol-2-amine] was tested, and the MIC [1] was 4 to 10 µM (≈ 1.8 to 4.5 µg/mL) and the pIC50 ([2]; read-out: IC50 value) was over 6.95.
Cc1cc([N+](=O)[O-])nn1C(C)c1nnc(Nc2ccn(Cc3ccccc3Cl)n2)s1 (stereo not drawn) [Example 40, N-{1-[(2-chlorophenyl)methyl]-1H-pyrazol-3-yl}-5-[1-(5-methyl-3-nitro-1H-pyrazol-1-yl)ethyl]-1,3,4-thiadiazol-2-amine] gave an MIC [1] of 1 to 4 µM (≈ 0.445 to 1.78 µg/mL) and a pIC50 ([2]; read-out: IC50 value) of over 6.95.
In the case of Cc1cc([N+](=O)[O-])nn1Cc1nnc(Nc2ccn(Cc3ccccc3)n2)s1 [Example 62, 5-[(5-methyl-3-nitro-1H-pyrazol-1-yl)methyl]-N-[1-(phenylmethyl)-1H-pyrazol-3-yl]-1,3,4-thiadiazol-2-amine], the MIC [1] was over 10 µM and the pIC50 ([2]; read-out: IC50 value) was 5.90 to 6.60.
Work on Cc1cc(C)n(Cc2nnc(Nc3ccn(Cc4ccccc4Cl)n3)s2)n1 [Example 56, N-{1-[(2-chlorophenyl)methyl]-1H-pyrazol-3-yl}-5-[(3,5-dimethyl-1H-pyrazol-1-yl)methyl]-1,3,4-thiadiazol-2-amine] yielded an MIC [1] of over 10 µM and a pIC50 ([2]; read-out: IC50 value) of over 6.90.
With Cc1cc([N+](=O)[O-])nn1Cc1nnc(Nc2ccn(Cc3ccccc3Cl)n2)s1 [Example 58, N-{1-[(2-chlorophenyl)methyl]-1H-pyrazol-3-yl}-5-[(5-methyl-3-nitro-1H-pyrazol-1-yl)methyl]-1,3,4-thiadiazol-2-amine] the MIC [1] was over 10 µM and the pIC50 ([2]; read-out: IC50 value) was 5.94 to 6.63.
Compound Cc1ccn([C@H](C)c2nnc(Nc3ccn(Cc4c(F)cccc4Cl)n3)s2)n1 (single isomer, unassigned) [Example 66] has an MIC [1] of 1 to 4 µM (≈ 0.418 to 1.67 µg/mL) and a pIC50 ([2]; read-out: IC50 value) of over 6.92.
Cc1cc(C)n(C(C)c2nnc(Nc3ccn(Cc4c(F)ccc(C)c4Cl)n3)s2)n1 (stereo not drawn) [Example 23, N-{1-[(2-chloro-6-fluoro-3-methylphenyl)methyl]-1H-pyrazol-3-yl}-5-[1-(3,5-dimethyl-1H-pyrazol-1-yl)ethyl]-1,3,4-thiadiazol-2-amine] gave an MIC [1] of at most 1 µM and a pIC50 ([2]; read-out: IC50 value) of over 6.95.
Cc1cc(C)n(Cc2nnc(Nc3ccn(Cc4ccccc4)n3)s2)n1 [Example 64, 5-[(3,5-dimethyl-1H-pyrazol-1-yl)methyl]-N-[1-(phenylmethyl)-1H-pyrazol-3-yl]-1,3,4-thiadiazol-2-amine] gave an MIC [1] of over 10 µM and a pIC50 ([2]; read-out: IC50 value) of 5.86 to 6.56.
Cc1csc([C@@](C)(O)c2nnc(Nc3ccn(Cc4c(F)cccc4Cl)n3)s2)n1 (single isomer, unassigned) [Example 71] showed an MIC [1] of 1 to 4 µM (≈ 0.451 to 1.8 µg/mL) and a pIC50 ([2]; read-out: IC50 value) of over 6.96.
Compound Cc1ccn(C(C)c2nnc(Nc3ccn(Cc4ccccc4)n3)s2)n1 (stereo not drawn) [Example 44, 5-[1-(3-methyl-1H-pyrazol-1-yl)ethyl]-N-[1-(phenylmethyl)-1H-pyrazol-3-yl]-1,3,4-thiadiazol-2-amine] has an MIC [1] of 1 to 4 µM (≈ 0.365 to 1.46 µg/mL) and a pIC50 ([2]; IC50 value) of 6.56 to 6.86.
Work on Cc1ccn(C(C)c2nnc(Nc3ccn(Cc4cccc(C)c4F)n3)s2)n1 (stereo not drawn) [Example 13, N-{1-[(2-fluoro-3-methylphenyl)methyl]-1H-pyrazol-3-yl}-5-[1-(3-methyl-1H-pyrazol-1-yl)ethyl]-1,3,4-thiadiazol-2-amine] yielded an MIC [1] of at most 1 µM and a pIC50 ([2]; read-out: IC50 value) of over 6.90.
In the case of Cc1cc(C)n(Cc2nnc(Nc3ccn(Cc4c(F)cccc4Cl)n3)s2)n1 [Example 51, N-{1-[(2-chloro-6-fluorophenyl)methyl]-1H-pyrazol-3-yl}-5-[(3,5-dimethyl-1H-pyrazol-1-yl)methyl]-1,3,4-thiadiazol-2-amine], the MIC [1] was over 10 µM and the pIC50 ([2]; read-out: IC50 value) was over 6.92.
For Cc1csc(C(C)c2nnc(Nc3ccn(Cc4c(F)cccc4Cl)n3)s2)n1 (stereo not drawn) [Example 29, N-{1-[(2-chloro-6-fluorophenyl)methyl]-1H-pyrazol-3-yl}-5-[1-(4-methyl-1,3-thiazol-2-yl)ethyl]-1,3,4-thiadiazol-2-amine], the MIC [1] was 1 to 4 µM (≈ 0.435 to 1.74 µg/mL) and the pIC50 ([2]; read-out: IC50 value) was over 6.94.
